Measurements as given in patent US20210290648A1, “Potentiation of B-Lactam Antibiotics and B-Lactam/B-Lactamase Inhibitor Combinations Against Multidrug and Extensively Drug-Resistant Pseudomonas Aeruginosa Using Non-Ribosomal Tobramycin-Cyclam Conjugates” (University of Manitoba, priority 2018, published 2021).

Tests used:
[1] = system: MDR PA108590-challenged larvae; experiment: Galleria mellonella infection model, efficacy; type: in vivo; conditions: ceftazidime+avibactam+compound 2, 1.56+1.56+3.12 mg/kg
Source text: In vivo larvae-infection model.

PA 91433 = experiment: Checkerboard combination study / MIC; type: cell-based, Pseudomonas aeruginosa; conditions: for MICCombination (2) / FIC2: PA 91433
MDR PA108590 = experiment: Time-kill assay, triple combination; type: cell-based, Pseudomonas aeruginosa
PA108590 = experiment: MIC / triple combination susceptibility; type: cell-based, Pseudomonas aeruginosa; conditions: triple combination with avibactam and compound 2 (8 μM each); ceftazidime, aztreonam, meropenem
Source text: The diazabicyclooctane β-lactamase inhibitor, avibactam, is able to inhibit a wide range of serine β-lactamases (class A, C, and D) but not metallo-β-lactamases (class B) (50, 51).^50,51 However, the high concentration of avibactam required to neutralize the effects of β-lactamase enzymes in these phenotypes is indicative of concomitant permeability barriers in the isolates, such as reduced porin uptake. […] The results of this study are shown in (FIG. 6). All isolates were resistant to all three β-lactam antibiotics used for the study. […] As expected, the study with meropenem was slightly different from others.
Antimicrobial Susceptibility Assay. The in vitro antimicrobial activity of all compounds/antibiotics against a panel of bacteria was evaluated by microbroth dilution method in accordance with the Clinical and Laboratory Standards Institute (CLSI) guidelines. […]
Checkerboard Assay. […] After incubation, the plates were read on EMax® Plus microplate reader (Molecular Devices, Sunnyvale, Calif., USA) at 590 nm. MIC was recorded as wells with the lowest concentration of drugs with no bacterial growth. The fractional inhibitory concentration (FIC) for each antibiotic was calculated by dividing the MIC of the antibiotic in the presence of adjuvant by the MIC of the antibiotic alone. […]

PA 100036 = experiment: Checkerboard combination study / MIC; type: cell-based, Pseudomonas aeruginosa
PA 264 = experiment: Checkerboard combination study / MIC; type: cell-based, Pseudomonas aeruginosa
[2] = system: MDR PA101885-challenged larvae; experiment: Galleria mellonella infection model, efficacy; type: in vivo
Description: In vivo synergistic effects were determined using Galleria mellonella infection model, as previously described (20). Briefly, worms were purchased from The Worm Lady® Live Feeder (ON, Canada), stored in their natural habitat at 16° C., and used within 10 days of delivery. The worms (average weight of 250 mg) were used for tolerability and efficacy studies. Tolerability study was performed by injecting 10 μL of antimicrobial agents only at concentrations equivalent to 100 mg/kg or 200 mg/kg. The worms (ten in each group) were incubated at 37° C. and monitored for 96 h. For efficacy studies, the virulence and bacterial load required to kill 100% of the worms within 12-18 h (with no treatment) was first determined, which is approximately 5 CFU. Overnight grown culture of respective MDR P. aeruginosa isolate was standardized to 0.5 McFarland standard and diluted in PBS to a final concentration of 5×10^2CFU/mL. 10 μL of this solution (5 CFU) was injected into each worm and incubated for 3 h at 37° C. […] Worms treated with 10 μL PBS or high concentrations of test antibiotics served as negative and positive control, respectively. The worms were incubated at 37° C. in Petri dishes lined with filter paper and scored for survivability every 6 h for up to 48 h. This experiment was repeated to give a total of thirty worms (n=30) in each case. Survival data curves were plotted using Kaplan-Meier survival analysis.

## 5-O-(Octylcyclam)-tobramycin.9TFA [Compound 2]
[1]; after 24 h
  survival of larvae: 100%
[1]; after 36 h
  survival of larvae: 95%
PA 91433; MIC of 2 combined with AZT
  MICCombination (2): 16 µg/mL
PA 91433; MIC of 2 combined with CAZ
  MICCombination (2): 0.25 µg/mL
PA 91433; MIC of 2 combined with CEF
  MICCombination (2): 16 µg/mL
PA 91433; MIC of 2 combined with DOR
  MICCombination (2): 8 µg/mL
PA 91433; MIC of 2 combined with MER
  MICCombination (2): 4 µg/mL
PA 91433; by compound 2, colistin-resistant clinical isolate PA91433
  potentiation of meropenem: 64 fold
PA 91433; with AZT
  FIC2: <0.0625
PA 91433; with CAZ
  FIC2: <0.0010
PA 91433; with CEF
  FIC2: <0.0625
PA 91433; with DOR
  FIC2: <0.0313
PA 91433; with MER
  FIC2: <0.0156
MDR PA108590; ceftazidime + avibactam + compound 2, after 3 h
  bacterial counts lower than ceftazidime+avibactam: > 2 Log
MDR PA108590; triple combination ceftazidime + avibactam + compound 2, limit of detection 10 CFU/mL
  time to sterilization of bacteria culture: ≤ 3 h
MDR PA108590; triple combination ceftazidime + avibactam + compound 2, within 3 h
  reduction in total CFU/mL from original inoculum: 6 Log
PA108590
  potentiation of all three β-lactam antibiotics: 128 fold
PA 100036; MIC of 2 combined with AZT
  MICCombination (2): 8 µg/mL
PA 100036; MIC of 2 combined with CAZ
  MICCombination (2): 8 µg/mL
PA 100036; MIC of 2 combined with CEF
  MICCombination (2): 16 µg/mL
PA 100036; MIC of 2 combined with DOR
  MICCombination (2): 16 µg/mL
PA 100036; MIC of 2 combined with MER
  MICCombination (2): 2 µg/mL
PA 100036; MIC of 2 combined with PIP
  MICCombination (2): 16 µg/mL
PA 100036; with AZT
  FIC2: <0.0313
PA 100036; with CAZ
  FIC2: <0.0313
PA 100036; with CEF
  FIC2: <0.0625
PA 100036; with DOR
  FIC2: <0.0625
PA 100036; with MER
  FIC2: <0.0078
PA 100036; with PIP
  FIC2: <0.0625
PA 264; MIC of 2 combined with AZT
  MICCombination (2): 8 µg/mL
PA 264; MIC of 2 combined with CAZ
  MICCombination (2): 8 µg/mL
PA 264; MIC of 2 combined with CEF
  MICCombination (2): 16 µg/mL
PA 264; MIC of 2 combined with DOR
  MICCombination (2): 4 µg/mL
PA 264; MIC of 2 combined with MER
  MICCombination (2): 4 µg/mL
PA 264; MIC of 2 combined with PIP
  MICCombination (2): 4 µg/mL
PA 264; with AZT
  FIC2: <0.0313
PA 264; with CAZ
  FIC2: <0.0313
PA 264; with CEF
  FIC2: <0.0625
PA 264; with DOR
  FIC2: <0.0156
PA 264; with MER
  FIC2: <0.0156
PA 264; with PIP
  FIC2: <0.0156
[2]; aztreonam […], meropenem 37.5 mg/kg, compound 2 100 mg/kg, after 24 h
  mortality of larvae, monotherapy: 100%
[2]; in vitro and in vivo
  activity by itself against MDR PA101885: innately inactive
[2]; meropenem + compound 2, 25+25 mg/kg, after 24 h
  survival of larvae: 0%
[2]; meropenem + compound 2, 37.5+37.5 mg/kg, after 24 h
  survival of larvae: 85%
